# Measurements taken from patent publication US8470525B2, “Method for analyzing air” (priority 2011, dated 2013).
# How the values were obtained:
# Format in all cases: biochemical
# [1] = biological target: T1, acetylcholinesterase enzyme (Homo sapiens, UniProt P22303); experiment: Air monitoring device: detection of aerosolized enzymatic substrate by fluorescence after enzyme addition; conditions: Example 7, FIG. 11: indoxyl acetate solution 0.1 mg/ml aerosolized; 4 minute cycles; cycles three and four; clean air amplitude 500
# Experimental: Example 7 provides a method of this invention to detect other chemicals in the air. The device in this example was operated continuously in 4 minute cycles. Each cycle consists of a 2 minute second sampling period at a flow rate of 1 liter per minute, 5 second enzyme addition step, a 85 second reading period and a 30 second rinse step. The consumables/reagents consisted of a) 3 mg/ml acetylcholinesterase enzyme solution in buffer and b) 100 mM buffer at pH 7.0. This example used a polyethylene disk with a pore size of 15-45 um and a thickness of 1.6 mm as the impactor disk. The enzyme aerosol was generated using 5×500 ms pulses every second for 5 seconds total. The rinse step at conclusion of the cycle was accomplished by continuously aerosolizing buffer for about 30 seconds.
# Specifically, indoxyl acetate solution was aerosolized into a plastic test chamber at a concentration of 0.1 mg/ml. […] The device indicated the presence of the target protein by an amplitude increase to at least 3,000 fluorescent units in cycles three and four compared to an amplitude of 500 in cycles one and two during the time clean air was sampled.
# [2] = Air monitoring device: detection of aerosolized enzyme protein by fluorescence from indoxyl acetate substrate; conditions: Example 6, FIG. 10: enzyme solution 3 mg/ml aerosolized; 3 minute cycles; cycles four, five and six; clean air amplitude 0
# Experimental: Example 6 provides a method of this invention for the detection of a protein in the air. The device in this example was operated continuously in 3 minute cycles. Each cycle consists of a 30 second sampling period at a flow rate of 1 liter per minute, a 5 second substrate addition step, a 85 second reading period and a 60 second rinse step. The consumables/reagents consisted of a) 12.5 mg/ml indoxyl acetate substrate solution in isopropyl alcohol (IPA), diluted in buffer 100 fold and b) 100 mM buffer at pH 7.0. This example used a polyethylene disk with a pore size of 15-45 um and a thickness of 1.6 mm as the impactor disk. The substrate aerosol was generated using 5×500 ms pulses every second for 5 seconds total. The rinse step at conclusion of the cycle was accomplished by continuously aerosolizing buffer for about 60 seconds.
# Specifically, acetylcholinesterase enzyme solution was aerosolized into a plastic test chamber at a concentration of 3 mg/ml. The sampled air was contaminated with enzyme two times at intervals indicated by solid triangles (beginning) and white triangles (end). As set forth in FIG. 10, the device indicated the presence of the target protein by an amplitude increase to at least 2,000 fluorescent units in cycles four, five and six compared to an amplitude of 0 in cycles one, two and three during the time clean air was sampled.
# [3] = biological target: T1, acetylcholinesterase enzyme; experiment: Enzyme-based air monitoring device: detection of cholinesterase inhibitor in air by loss of acetylcholinesterase/indoxyl acetate fluorescence signal; conditions: Example 4, FIG. 8: aerosol from 2.5 ppm paraoxon solution; 4 minute cycles; polyethylene disk 15-45 um; clean-air cycle around 14,000
# Experimental: In this embodiment of the invention, the device and method operates in repetitive cycles ranging from 30 seconds to 10 minutes. […] The cycle shown in FIG. 2 took 5 minutes for completion. The enzyme and substrate addition took 5 seconds, the sampling time took 115 seconds, the reading took 85 seconds and was concluded by the alarm status update at the end which requires only a fraction of a second, and the rinse took 90 seconds. Each cycle concludes with the rinse step where components of the reaction are rinsed off the surface of the collection matrix and preferably from the reaction zone and the surface of the collection matrix, in order to set the stage for a new sampling cycle.
# FIGS. 3a and 3b illustrate the steps of one 5 minute cycle with no detection event in more detail. […] Particles, aerosols and vapor from the environment are collected on the impactor disk or surface of the collection matrix. During this step one nebulizer is activated adding aerosolized enzyme visualized in FIGS. 3a and 3b by clam shaped symbols. The enzyme is being accumulated on the impactor disk/surface of the collection matrix. […] During the next step 4) 85 seconds reading, the catalytic reaction of the enzyme substrate complex is monitored with an optical system. […] During the reading period, the air sampling pump is typically switched off. […]
# T1 sequence (P22303 32-614, species assumed): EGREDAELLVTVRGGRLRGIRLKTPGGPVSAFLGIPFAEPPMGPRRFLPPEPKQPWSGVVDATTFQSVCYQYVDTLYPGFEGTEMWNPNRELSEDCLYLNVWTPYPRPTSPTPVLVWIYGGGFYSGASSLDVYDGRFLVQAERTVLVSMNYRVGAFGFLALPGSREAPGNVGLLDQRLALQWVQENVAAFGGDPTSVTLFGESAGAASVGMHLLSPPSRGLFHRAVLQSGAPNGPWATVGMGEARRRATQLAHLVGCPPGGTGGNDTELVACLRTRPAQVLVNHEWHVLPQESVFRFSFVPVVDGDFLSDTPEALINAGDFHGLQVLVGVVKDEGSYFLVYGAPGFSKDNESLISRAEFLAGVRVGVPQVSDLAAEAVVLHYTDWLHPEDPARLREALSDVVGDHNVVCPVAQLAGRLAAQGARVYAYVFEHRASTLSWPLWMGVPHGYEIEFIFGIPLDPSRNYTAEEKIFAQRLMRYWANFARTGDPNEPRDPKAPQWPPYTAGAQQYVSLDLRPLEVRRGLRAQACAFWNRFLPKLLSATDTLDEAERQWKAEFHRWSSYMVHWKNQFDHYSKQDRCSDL
molecule,measurement,setting,value
indoxyl acetate,amplitude increase,[1],"at least 3,000 fluorescent units"
acetylcholinesterase,amplitude increase,[2],"at least 2,000 fluorescent units"
CCOP(=O)(OCC)Oc1ccc([N+](=O)[O-])cc1 [paraoxon],signal amplitude,[3],"around 4,000 fluorescent units"
